Read-outs that look alike come from different tables or passages of the source. *1 amine or outer side, *2 acyl side, *3 side chain or, on linkers, in order; H or OH if unused. Where a SMILES comes first, the peptide text is derived from it. Bridges are numbered along the chain shown (N, C = ends). [ ]: non-standard residue; d: D form. The star is where a group is joined. X5 = NC(=O)[C@H](CCCCNC(=O)CN1CCN(CC(=O)O)CCN(CC(=O)O)CCN(CC(=O)O)CC1)NC(=O)CCC(=O)NCCCOCCOCCOCCCN*; NH(1-deoxy-D-glucityl) = OC[C@@H](O)[C@@H](O)[C@H](O)[C@@H](O)CN*; DO3AM = NC(=O)CN1CCN(CC(N)=O)CCN(CC(=O)*)CCN(CC(N)=O)CC1; DOTA = O=C(O)CN1CCN(CC(=O)O)CCN(CC(=O)*)CCN(CC(=O)O)CC1; Trp(5-Cl) = N[C@@H](Cc1c[nH]c2ccc(Cl)cc12)C(=O)O; Pyridine(2,6-diCH2) = c1cc(C[*:1])nc(C[*:2])c1; Phe(2,4-Cl2) = N[C@@H](Cc1ccc(Cl)cc1Cl)C(=O)O; Phe(4-Cl) = N[C@@H](Cc1ccc(Cl)cc1)C(=O)O; Pro(4R-NH2) = N[C@H]1CN[C@H](C(=O)O)C1; 1Nal = N[C@@H](Cc1cccc2ccccc12)C(=O)O; Desaminotyrosyl = O=C(CCc1ccc(O)cc1)*; mXylylene = c1cc(C[*:1])cc(C[*:2])c1; Glutaryl = O=C(CCCC(=O)[*:2])[*:1]; X6 = c1cc(CSCCN[*:2])nc(C[*:1])c1; Hyp = O=C(O)[C@@H]1C[C@@H](O)CN1; X1 = O=C(CN1CCC(N[*:1])CC1)[*:2]; tBuAla = CC(C)(C)C[C@H](N)C(=O)O; Suc = O=C(CCC(=O)[*:2])[*:1]; Ac6c = NC1(C(=O)O)CCCCC1; Ac5c = NC1(C(=O)O)CCCC1; Api = NC1(C(=O)O)CCNCC1; Thp = NC1(C(=O)O)CCOCC1; Aib = CC(C)(N)C(=O)O
Biological target: T1, GIPR (CHO-K1-hGIPR cells) (Homo sapiens, UniProt P48546)
T1 construct: host or cells: CHO-K1
T1 sequence (P48546 22-466): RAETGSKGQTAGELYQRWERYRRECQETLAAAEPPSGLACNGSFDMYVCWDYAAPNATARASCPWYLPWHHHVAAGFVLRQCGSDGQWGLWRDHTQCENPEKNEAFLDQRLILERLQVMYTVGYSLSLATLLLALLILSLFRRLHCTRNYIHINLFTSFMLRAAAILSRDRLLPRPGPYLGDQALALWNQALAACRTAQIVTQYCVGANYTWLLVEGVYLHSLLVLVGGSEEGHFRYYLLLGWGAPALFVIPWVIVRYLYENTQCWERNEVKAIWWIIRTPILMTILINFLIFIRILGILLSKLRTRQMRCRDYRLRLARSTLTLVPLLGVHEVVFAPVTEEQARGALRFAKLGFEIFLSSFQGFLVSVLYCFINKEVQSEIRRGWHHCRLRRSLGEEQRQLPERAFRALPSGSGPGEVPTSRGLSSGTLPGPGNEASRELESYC
Assay: FACS binding assay
Details: read-out: pIC50 Category (converted)
In short: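 CHO-K1 cells stably expressing human GIPR were detached with Accutase, suspended at 500.000 cells per mL in PBS with 1% FCS, and washed ice-cold. Bound peptide was detected with 1 μg/mL APC-streptavidin for 30 min on ice.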

[1] = competition with 20 nM GIP-057, 4° C., 1 hour
[2] = competition with 20 nM GIP-057, 4° C. for 1 hour

| IC50 [1] | IC50 [2] | Compound |
| --- | --- | --- |
| < 10 nM |  | CC[C@H](C)[C@@H]1NC(=O)[C@H](CC(C)C)NC(=O)[C@H](CCCCNC(=O)CN2CCN(CC(=O)O)CCN(CC(=O)O)CCN(CC(=O)O)CC2)NC(=O)[C@@H](NC(=O)[C@@H](CC(C)C)NC(=O)[C@H](CCC(=O)O)NC(=O)[C@@H]2C[C@@H](N)CN2C(=O)[C@H](Cc2c[nH]c3ccc(Cl)cc23)NC(=O)[C@H](Cc2c[nH]c3ccccc23)NC(=O)[C@H](CC(=O)O)NC(=O)CCCC(=O)NC[C@H](O)[C@@H](O)[C@H](O)[C@H](O)CO)CSCc2cccc(n2)CSC[C@@H](C(=O)NC2CCN(CC(=O)N[C@H](CCC(=O)NC[C@H](O)[C@@H](O)[C@H](O)[C@H](O)CO)C(N)=O)CC2)NC1=O [GIP-024, AGLU-Glutar-Asp-Trp-5Clw-Tap-Glu-leu-[Cys(2Lut)-Lys(DOTA)-Leu-Ile-Cys]-APAc-glu(AGLU)-NH2] ({NH(1-deoxy-D-glucityl)-Glutaryl}-DW[Trp(5-Cl)][Pro(4R-NH2)]E[dL]CK(DOTA)LIC[X1][dE](NH(1-deoxy-D-glucityl))-NH2; linker 7-11 via Pyridine(2,6-diCH2)) |
|  | > 1000 nM | CC[C@H](C)[C@@H]1NC(=O)[C@H](CC(C)C)NC(=O)C2(CCOCC2)NC(=O)[C@@H](NC(=O)[C@@H](CC(C)C)NC(=O)[C@H](CCC(=O)O)NC(=O)[C@@H]2C[C@@H](O)CN2C(=O)[C@H](Cc2ccc(Cl)cc2)NC(=O)[C@H](Cc2c[nH]c3ccccc23)NC(=O)[C@H](CC(=O)O)NC(C)=O)CSCc2cccc(n2)CSC[C@@H](C(N)=O)NC1=O [GIP-350, Ac-Asp-Trp-Pcf-Hyp-Glu-leu-[Cys(2Lut)-Thp-Leu-Ile-Cys]-NH2] (Ac-DW[Phe(4-Cl)][Hyp]E[dL]C[Thp]LIC-NH2; linker 7-11 via Pyridine(2,6-diCH2)) |
| 10 to 79.4 nM |  | CC[C@H](C)[C@@H]1NC(=O)[C@H](CC(C)(C)C)NC(=O)C(C)(C)NC(=O)[C@@H](NC(=O)[C@H](CC(C)C)NC(=O)[C@H](CCC(=O)O)NC(=O)[C@@H]2CCCN2C(=O)[C@H](Cc2c[nH]c3ccccc23)NC(=O)[C@H](Cc2c[nH]c3ccccc23)NC(=O)[C@H](CC(=O)O)NC(C)=O)CSCc2cccc(c2)CSC[C@@H](C(=O)NCCCOCCOCCOCCCNC(=O)CCC(=O)N[C@@H](CCCCNC(=O)CN2CCN(CC(=O)O)CCN(CC(=O)O)CCN(CC(=O)O)CC2)C(N)=O)NC1=O [GIP-133, Ac-Asp-Trp-Trp-Pro-Glu-Leu-[Cys(3MeBn)-Aib-Npg-Ile-Cys]-Ttds-Lys(DOTA)-NH2] (Ac-DWWPELC[Aib][tBuAla]IC-X5; linker 7-11 via mXylylene) |
| 10 to 79.4 nM |  | CC[C@H](C)[C@@H]1NC(=O)[C@H](CC(C)C)NC(=O)C(C)(C)NC(=O)[C@@H](NC(=O)[C@@H](CC(C)C)NC(=O)[C@H](CCC(=O)O)NC(=O)[C@@H]2CCCN2C(=O)[C@H](Cc2c[nH]c3ccccc23)NC(=O)[C@H](Cc2c[nH]c3ccccc23)NC(=O)[C@H](CC(=O)O)NC(=O)CCc2ccc(O)cc2)CSCc2cccc(c2)CSC[C@@H](C(=O)NCCCOCCOCCOCCCNC(=O)CCC(=O)N[C@@H](CCCCNC(=O)CN2CCN(CC(=O)O)CCN(CC(=O)O)CCN(CC(=O)O)CC2)C(N)=O)NC1=O [GIP-137, 4OHPhp-Asp-Trp-Trp-Pro-Glu-leu-[Cys(3MeBn)-Aib-Leu-Ile-Cys]-Ttds-Lys(DOTA)-NH2] (Desaminotyrosyl-DWWPE[dL]C[Aib]LIC-X5; linker 7-11 via mXylylene) |

Continued, compound first:

| Compound | IC50 [1] | IC50 [2] |
| --- | --- | --- |
| CC[C@H](C)[C@@H]1NC(=O)[C@H](CC(C)C)NC(=O)C2(CCOCC2)NC(=O)[C@@H](NC(=O)[C@@H](CC(C)C)NC(=O)[C@H](CCC(=O)O)NC(=O)[C@@H]2C[C@@H](O)CN2C(=O)[C@H](Cc2c[nH]c3ccc(Cl)cc23)NC(=O)[C@H](Cc2ccc(Cl)cc2Cl)NC(=O)[C@H](CC(=O)O)NC(C)=O)CSCc2cccc(n2)CSC[C@@H](C(N)=O)NC1=O [GIP-212, Ac-Asp-Egm-5Clw-Hyp-Glu-leu-[Cys(2Lut)-Thp-Leu-Ile-Cys]-NH2] (Ac-D[Phe(2,4-Cl2)][Trp(5-Cl)][Hyp]E[dL]C[Thp]LIC-NH2; linker 7-11 via Pyridine(2,6-diCH2)) | < 10 nM |  |
| CC[C@H](C)[C@@H]1NC(=O)[C@H](CC(C)C)NC(=O)C2(CCN(C(=O)CN3CCN(CC(N)=O)CCN(CC(N)=O)CCN(CC(N)=O)CC3)CC2)NC(=O)[C@@H](NC(=O)[C@@H](CC(C)C)NC(=O)[C@H](CCC(=O)O)NC(=O)[C@@H]2C[C@@H](N)CN2C(=O)[C@H](Cc2c[nH]c3ccc(Cl)cc23)NC(=O)[C@H](Cc2c[nH]c3ccccc23)NC(=O)[C@H](CC(=O)O)NC(=O)CCCC(=O)NC[C@H](O)[C@@H](O)[C@H](O)[C@H](O)CO)CSCc2cccc(n2)CSC[C@@H](C(=O)NC2CCN(CC(=O)N[C@H](CCC(=O)NC[C@H](O)[C@@H](O)[C@H](O)[C@H](O)CO)C(N)=O)CC2)NC1=O [GIP-370, AGLU-Glutar-Asp-Trp-5Clw-Tap-Glu-leu-[Cys(2Lut)-Apc(DOTAM)-Leu-Ile-Cys]-APAc-glu(AGLU)-NH2] ({NH(1-deoxy-D-glucityl)-Glutaryl}-DW[Trp(5-Cl)][Pro(4R-NH2)]E[dL]C[Api](DO3AM)LIC[X1][dE](NH(1-deoxy-D-glucityl))-NH2; linker 7-11 via Pyridine(2,6-diCH2)) |  | < 10 nM |
| CC[C@H](C)[C@@H]1NC(=O)[C@H](CC(C)C)NC(=O)[C@H](C)NC(=O)[C@@H](NC(=O)[C@H](CC(C)C)NC(=O)[C@H](CCC(=O)O)NC(=O)[C@@H]2CCCN2C(=O)[C@H](Cc2c[nH]c3ccccc23)NC(=O)[C@H](Cc2c[nH]c3ccccc23)NC(=O)CCC(=O)O)CSCc2cccc(n2)CSC[C@@H](C(N)=O)NC1=O [GIP-257, HO-Succinyl-Trp-Trp-Pro-Glu-Leu-[Cys(2Lut)-Ala-Leu-Ile-Cys]-NH2] (Suc-WWPELCALIC-NH2; linker 6-10 via Pyridine(2,6-diCH2)) |  | 10 to 79.4 nM |
| CC[C@H](C)[C@@H]1NC(=O)[C@H](CC(C)C)NC(=O)C(C)(C)NC(=O)[C@@H](NC(=O)[C@H](CC(C)C)NC(=O)[C@H](CCC(=O)O)NC(=O)[C@@H]2CCCN2C(=O)[C@H](Cc2c[nH]c3ccccc23)NC(=O)[C@H](Cc2c[nH]c3ccccc23)NC(=O)CCC(=O)O)CSCc2cccc(c2)CSC[C@@H](C(N)=O)NC1=O [GIP-259, HO-Succinyl-Trp-Trp-Pro-Glu-Leu-[Cys(3MeBn)-Aib-Leu-Ile-Cys]-NH2] (Suc-WWPELC[Aib]LIC-NH2; linker 6-10 via mXylylene) |  | 10 to 79.4 nM |
| CC[C@H](C)[C@@H]1NC(=O)[C@H](CC(C)C)NC(=O)C2(CCOCC2)NC(=O)[C@@H](NC(=O)[C@@H](CC(C)C)NC(=O)[C@H](CCC(=O)O)NC(=O)[C@@H]2C[C@@H](O)CN2C(=O)[C@H](Cc2c[nH]c3ccc(Cl)cc23)NC(=O)CNC(=O)[C@H](CC(=O)O)NC(=O)CN2CCC(NC(=O)CN3CCN(CC(=O)O)CCN(CC(=O)O)CCN(CC(=O)O)CC3)CC2)CSCc2cccc(n2)CSCCNC1=O [GIP-284, DOTA-APAc-Asp-Gly-5Clw-Hyp-Glu-leu-[Cys(2Lut)-Thp-Leu-Ile-AET]] ({DOTA}-[X1]DG[Trp(5-Cl)][Hyp]E[dL]C[Thp]LI; linker 8-C via X6) |  | 100 to 794 nM |
| CC[C@H](C)[C@@H]1NC(=O)[C@H](CC(C)C)NC(=O)C(C)(C)NC(=O)[C@@H](NC(=O)[C@H](CC(C)C)NC(=O)[C@H](CCC(=O)O)NC(=O)[C@@H]2CCCN2C(=O)[C@H](Cc2c[nH]c3ccccc23)NC(=O)[C@H](Cc2cccc3ccccc23)NC(=O)[C@H](CC(=O)O)NC(C)=O)CSCc2cccc(c2)CSC[C@@H](C(=O)NCCCOCCOCCOCCCNC(=O)CCC(=O)N[C@@H](CCCCNC(=O)CN2CCN(CC(=O)O)CCN(CC(=O)O)CCN(CC(=O)O)CC2)C(N)=O)NC1=O [GIP-293, Ac-Asp-1Ni-Trp-Pro-Glu-Leu-[Cys(3MeBn)-Aib-Leu-Ile-Cys]-Ttds-Lys(DOTA)-NH2] (Ac-D[1Nal]WPELC[Aib]LIC-X5; linker 7-11 via mXylylene) |  | > 1000 nM |
| CC[C@H](C)[C@@H]1NC(=O)[C@H](CC(C)C)NC(=O)C2(CCCCC2)NC(=O)[C@@H](NC(=O)[C@@H](CC(C)C)NC(=O)[C@H](CCC(=O)O)NC(=O)[C@@H]2CCCN2C(=O)[C@H](Cc2cccc3ccccc23)NC(=O)[C@H](Cc2c[nH]c3ccccc23)NC(=O)[C@H](CC(=O)O)NC(C)=O)CSCc2cccc(c2)CSC[C@@H](C(=O)NCCCOCCOCCOCCCNC(=O)CCC(=O)N[C@@H](CCCCNC(=O)CN2CCN(CC(=O)O)CCN(CC(=O)O)CCN(CC(=O)O)CC2)C(N)=O)NC1=O [GIP-080, Ac-Asp-Trp-1Ni-Pro-Glu-leu-[Cys(3MeBn)-Egz-Leu-Ile-Cys]-Ttds-Lys(DOTA)-NH2] (Ac-DW[1Nal]PE[dL]C[Ac6c]LIC-X5; linker 7-11 via mXylylene) | < 10 nM |  |
| CC[C@H](C)[C@@H]1NC(=O)[C@H](CC(C)C)NC(=O)C2(CCCC2)NC(=O)[C@@H](NC(=O)[C@@H](CC(C)C)NC(=O)[C@H](CCC(=O)O)NC(=O)[C@@H]2C[C@@H](O)CN2C(=O)[C@H](Cc2c[nH]c3ccc(Cl)cc23)NC(=O)[C@H](Cc2c[nH]c3ccccc23)NC(=O)[C@H](CC(=O)O)NC(C)=O)CSCc2cccc(n2)CSC[C@@H](C(N)=O)NC1=O [GIP-203, Ac-Asp-Trp-5Clw-Hyp-Glu-leu-[Cys(2Lut)-Eca-Leu-Ile-Cys]-NH2] (Ac-DW[Trp(5-Cl)][Hyp]E[dL]C[Ac5c]LIC-NH2; linker 7-11 via Pyridine(2,6-diCH2)) | < 10 nM |  |
